From the CheMixHub drug solubility set

Test: xn = mol fraction of the nth substance listed, in the solute-free solvent

CC(C)OC(=O)C(C)NP(=O)(OCC1OC(n2ccc(=O)[nH]c2=O)C(C)(F)C1O)Oc1ccccc1 (stereo unspecified) + CCO + O
solubility (g/100 g solution)
Conditions	278.15 K	283.15 K	288.15 K	293.15 K	298.15 K	303.15 K	308.15 K	313.15 K	318.15 K
x2 = 0.04165	0.327	0.484	0.653	0.882	1.17	1.57	2.08	2.71	3.42
x2 = 0.08908	1.42	2.02	2.65	3.46	4.44	5.7	7.2	9.04	10.9
x2 = 0.1436	3.58	4.78	6.12	7.78	9.72	12.1	14.7	17.7	21
x2 = 0.2068	5.74	7.67	9.66	12	14.8	17.8	21.3	25.1	29
x2 = 0.2812	7.44	9.76	12.2	14.9	18.1	21.6	25.5	29.7	33.9
x2 = 0.3698	9.07	11.6	14.4	17.3	20.7	24.9	29	33.2	37.7
x2 = 0.4772	11	13.7	16.6	20.2	24.2	28.3	32.5	36.8	41.3
x2 = 0.6101	13.9	17	20.8	24.3	28.5	32.3	37.2	41.6	46.3
x2 = 0.7788	17.6	20.9	24.6	28.8	33.3	37.8	42.4	47	51.6

c1ccc2[nH]c(-c3cscn3)nc2c1 + CO + O
solubility (g/100 g solution)
Conditions	283.15 K	288.15 K	293.15 K	298.15 K	303.15 K	308.15 K	313.15 K	318.15 K	323.15 K
x2 = 0.05881	0.00229	0.00287	0.00369	0.00466	0.00574	0.00699	0.00862	0.0104	0.0128
x2 = 0.1233	0.0131	0.0159	0.0194	0.0238	0.0278	0.0335	0.0401	0.0473	0.0561
x2 = 0.1942	0.0339	0.0408	0.0481	0.0566	0.0663	0.0786	0.0909	0.105	0.122
x2 = 0.2727	0.0719	0.0844	0.101	0.119	0.139	0.161	0.187	0.216	0.246
x2 = 0.3599	0.131	0.154	0.181	0.206	0.242	0.278	0.317	0.364	0.412
x2 = 0.4576	0.21	0.243	0.283	0.328	0.368	0.419	0.477	0.541	0.616
x2 = 0.5675	0.329	0.373	0.425	0.486	0.554	0.62	0.697	0.779	0.874
x2 = 0.6923	0.478	0.542	0.614	0.69	0.779	0.87	0.967	1.07	1.19
x2 = 0.835	0.643	0.725	0.815	0.914	1.02	1.13	1.25	1.38	1.52

S=c1[nH]ncs1 + CC(C)=O + O
solubility (g/100 g solution)
Conditions	278.15 K	283.15 K	288.15 K	293.15 K	298.15 K	303.15 K	308.15 K	313.15 K	318.15 K	323.15 K
x2 = 0.1	1.78	2.36	2.99	3.78	4.76	6	7.45	9.31	11.5	14.2
x2 = 0.2	6.07	7.41	8.84	10.6	12.5	14.8	17.3	20.2	23.6	27.1
x2 = 0.3	11.4	13.3	15.3	17.4	19.6	22.2	24.9	28.1	30.9	34.4
x2 = 0.4	15.7	17.9	20.2	22.5	24.8	27.1	29.6	32.5	35.3	38.5
x2 = 0.5	19.8	21.7	23.7	25.6	27.8	30.3	32.6	34.8	37.3	40.1
x2 = 0.6	22	23.6	25.6	27.3	29.3	31.4	33.2	35.3	37.6	39.8
x2 = 0.7	22.6	24.3	26.2	27.7	29.5	31.4	33.2	35	37.1	39.3
x2 = 0.8	23.1	24.5	25.9	27.4	29.1	30.8	32.5	34	35.7	37.4
x2 = 0.9	21.4	22.6	24.2	25.6	27.2	28.6	30.4	32.1	33.7	35.3

CN1CCN(C2=Nc3cc(Cl)ccc3Nc3ccccc32)CC1 + CC(C)=O + Cc1ccccc1
solubility (g/100 g solution)
Conditions	x2 = 0.1503	x2 = 0.2841	x2 = 0.4047	x2 = 0.5141	x2 = 0.6136	x2 = 0.7038	x2 = 0.7876	x2 = 0.8642	x2 = 0.9343
293.15 K	4.2	5.72	6.98	7.87	8.37	8.49	8.42	8.02	7.41
298.15 K	4.59	6.06	7.92	8.77	9.44	9.83	9.53	9.03	8.42
303.15 K	5.42	7.16	8.86	9.9	10.6	10.7	9.99	9.78	8.81
308.15 K	6.11	8.41	9.86	10.9	11.9	12.3	11.6	11.3	10.4
313.15 K	7.38	9.81	11.5	12.7	13.4	13.6	13.4	12.9	11.9
318.15 K	8.97	11.4	13.2	14.3	15.4	15.3	15.5	14.8	13.4

S=c1[nH]ncs1 + CCO + O
solubility (g/100 g solution)
Conditions	278.15 K	283.15 K	288.15 K	293.15 K	298.15 K	303.15 K	308.15 K	313.15 K	318.15 K	323.15 K
x2 = 0.1	0.653	0.91	1.26	1.71	2.24	2.97	3.91	5.01	6.49	7.94
x2 = 0.2	1.93	2.6	3.27	4.16	5.3	6.67	8.34	10.5	12.8	15.2
x2 = 0.3	3.54	4.46	5.7	7.08	8.6	10.7	12.9	15.5	18.5	21.9
x2 = 0.4	5.21	6.58	8.06	9.53	11.3	13.6	16.1	18.9	22.3	26
x2 = 0.5	6.64	8	9.61	11.3	13.3	15.6	18.1	21.1	24.5	28.1
x2 = 0.6	7.53	8.92	10.7	12.4	14.4	16.5	19.2	22.3	25.4	28.5
x2 = 0.7	8.26	9.5	11.2	13.1	15	17.1	19.5	22.4	25.4	28
x2 = 0.8	8.41	10.1	11.6	13.3	15	17.2	19.5	22.1	25	27.6
x2 = 0.9	8.73	10.2	11.8	13.3	15.1	16.9	19.1	21.6	23.9	26.6
